Data as given in paper PMC9369311, “Examination of Intracellular GPCR-Mediated Signaling with High Temporal Resolution” (International Journal of Molecular Sciences, 2022).
Where “and” joins values, the source holds several entries; their conditions need not be identical. Equal entries are not always repeated.

Target: T1, DmOctβ1 receptor (Drosophila melanogaster, UniProt Q9VCZ3)
T1 construct: expressed in transfected cells; host or cells: flpTM cells (HEK293 flpIn, Invitrogen #750-07, carrying the CNGA2 variant)
T1 sequence (Q9VCZ3 1-508): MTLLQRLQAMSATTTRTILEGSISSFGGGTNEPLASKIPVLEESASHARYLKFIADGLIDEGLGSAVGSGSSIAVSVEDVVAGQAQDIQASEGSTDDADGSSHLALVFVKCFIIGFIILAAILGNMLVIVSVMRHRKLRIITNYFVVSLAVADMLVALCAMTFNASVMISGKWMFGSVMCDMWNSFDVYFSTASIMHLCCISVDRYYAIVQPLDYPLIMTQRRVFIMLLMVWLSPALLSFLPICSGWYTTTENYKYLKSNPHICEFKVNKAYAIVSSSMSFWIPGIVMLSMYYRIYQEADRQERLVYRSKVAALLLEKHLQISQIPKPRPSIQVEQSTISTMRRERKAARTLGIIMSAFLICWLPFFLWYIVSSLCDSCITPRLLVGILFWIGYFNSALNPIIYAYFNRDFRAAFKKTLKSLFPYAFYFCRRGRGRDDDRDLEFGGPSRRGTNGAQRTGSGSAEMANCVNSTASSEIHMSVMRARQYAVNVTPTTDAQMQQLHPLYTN
Assay: Stopped-flow Ca2+ fluorescence measurements, flpTM-DmOctβ1 cells, octopamine
Type: cell-based
Experimental: In successive stopped-flow measurements, the flpTM-DmOctβ1 cells loaded with Fluo-4 were stimulated with increasing octopamine (1 nM–3 µM) and NKH477 (100 nM–300 µM) concentrations. The fluorescence intensities were monitored over 80 s and 100 s, respectively (Figure 4A1,B1). The fluorescence intensities increased and finally reached a plateau with increasing concentrations of both of the ligands. However, the saturating ligand concentrations differed strongly between octopamine (≥300 nM) and NKH477 (≥100 µM). By plotting the maximal changes in fluorescence (ΔF/F0) against ligand concentrations, concentration–response curves were generated and EC50 values were calculated (Figure 4C). […] As observed for the DmOctα1B cell lines (see Figure 3D), the signal response times of flpTM-DmOctβ1 cells were faster at higher ligand concentrations (Figure 4A2,B2). In Figure 4D, the time until the signals were detected (for details, see Materials and Methods, Section 4.4) are plotted for the ligand concentrations covering the calculated EC50 value (dynamic range) and for saturating concentrations (saturating range). The signal response times of the flpTM-DmOctβ1 cells for octopamine were in the range of 30 s (dynamic range) and 6 s (saturating range), whereas the signal detection upon NKH477 application was observed after 50 s (dynamic range) and 16 s (saturating range). The signal response times were about three- to five-fold faster at the saturating concentrations in comparison to the octopamine and NKH477 concentrations in the dynamic range.
As described for the Fluo-4-loaded flpTM-DmOctβ1 cells, similar experiments were performed with the flpTM-DmOctβ1-GCaMP3.0 cells (Figure 5). The cells were successively mixed with increasing concentrations of octopamine (30 pM–100 nM) or NKH477 (30 nM–100 µM) and the fluorescence intensities were recorded over 100 s. For both of the ligands, increasing ligand concentrations led to an increase in the fluorescence emission finally reaching a plateau (Figure 5A1,B1).
For the stopped-flow measurements, the SFM-400 system (BioLogic, Münster, Germany) was used. The main component of the stopped-flow setup is the SFM-400 module with four 10 mL syringes, which can be filled by external valves. The syringes are driven by step motors. The reactants can be mixed in three individual mixing chambers (M1–M3). The volume between M1 and M2 is 21 µL, and 31 µL between M2 and M3. The observation chamber is a quartz cuvette (FC-15) with a reaction volume of 31 µL, installed behind M3. To avoid fluctuations of the reaction mixture in the cuvette, which might lead to noisy and inconsistent signals, a hard stop valve located behind the cuvette can be closed after injection of the reactants. The stopped-flow module is controlled via a MPS-60 control unit (BioLogic). Data acquisition and operation of the system were performed with the Bio-Kine 32 v4.74 software (BioLogic).
The reactions in the cuvette were analyzed via the changes in the fluorescence. A 150 W Xe/Hg-lamp (ALX-220; BioLogic) was used as a light source for the excitation. The excitation light was guided via a light guide towards the cuvette. To determine the wavelength of the excitation light, a 482 nm bandpass filter (482/35 nm BrightLine® single-band bandpass filter; Semrock, Rochester, NY, USA) was used. A heat protection filter (3 mm; KG1, Schott; Mainz, Germany) was placed between the Xe/Hg-lamp and the excitation filter. The fluorescence was detected with a photomultiplier (PMS 200, BioLogic) installed rectangularly to the light path of the excitation light. Between the cuvette and the photomultiplier tube a 535 nm bandpass emission filter (XF3007 535AF35; Horiba, Oberursel, Germany) was placed to select for the emission light being detected by the photomultiplier. A voltage of 600 V was applied to the photomultiplier.
The fluorescence measurements were performed either directly with the cells expressing GCaMP3.0 or after loading the cells with Fluo-4-AM. […]

- Signal Response Time (dynamic range (concentrations around EC50), flpTM-DmOctβ1 cells loaded with Fluo-4): ~30 s
- Signal Response Time (saturating concentration, flpTM-DmOctβ1-GCaMP3.0 cells, mean ± SEM): ~6 s
- Signal Response Time (saturating concentration, flpTM-DmOctβ1-GCaMP3.0 cells, mean ± SEM, listed as Octopamine): 6.00 ± 0.20 s
- Signal Response Time (saturating concentration, flpTM-DmOctβ1 cells loaded with Fluo-4, mean ± SEM): ~6 s
- Signal Response Time (saturating concentration, flpTM-DmOctβ1 cells loaded with Fluo-4, mean ± SEM, listed as Octopamine): 6.00 ± 0.13 s
- Signal Response Time (saturating ligand concentration, flpTM-DmOctβ1 cell lines, Fluo-4 and GCaMP3.0): 6 s and ≈ 6 s
- EC50 (stopped-flow, flpTM-DmOctβ1-GCaMP3.0 cells, mean ± SEM): ~1.8 nM and 1.78 nM and 1.8 nM
- saturating ligand concentration (stopped-flow, flpTM-DmOctβ1 cells loaded with Fluo-4): ≥ 300 nM
- EC50 (stopped-flow, flpTM-DmOctβ1 cells loaded with Fluo-4, mean ± SEM): ~22 nM and 22 nM
SMILES: NCC(O)c1ccc(O)cc1 (stereo not drawn) [octopamine]
